Where two headings read alike, the source gives them in different places.
Tested on: hypoxia-inducible endogenous VEGF expression
Test: Hypoxia-inducible endogenous VEGF expression ELISA in HeLa cells, dose-response EC50 (Table 3)
Format: cell-based, human
How it was run: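 HeLa cells kept 24-48 h under hypoxia (1% O2, 5% CO2, nitrogen balance) with or without compound, e.g. seven concentrations; secreted VEGF in conditioned medium quantified by ELISA against a standard curve. Parallel Cell Titer Glo viability under identical conditions excludes cytotoxicity.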

[1] = Homo sapiens, HeLa, read-out: ELISA EC50 μM
[2] = Homo sapiens, HeLa cells, hypoxic conditions (1% O2), 24-48 hours, VEGF in conditioned media, read-out: ELISA EC50
[3] = Homo sapiens, HeLa cells, hypoxic conditions (1% O2), VEGF ELISA of conditioned media, read-out: ELISA EC50

SMILES | EC50 [1] [µM] | EC50 [2] [µM] | other results
CN1CCC(OCCCOc2ccc(C3c4[nH]c5ccc(Cl)cc5c4CCN3C(=O)Oc3ccc(Cl)cc3)cc2)CC1 (centres unmarked) [Compound 1554] | > 1 |  | 
COC(=O)c1ccc(C2c3[nH]c4ccc(Cl)cc4c3CCN2C(=O)Oc2ccc(Cl)cc2)cc1 (centres unmarked) [Compound 580] |  | < 0.008 | 
[H]/N=c1\scnn1CCOc1ccc(C2c3[nH]c4ccc(Cl)cc4c3CCN2C(=O)Oc2ccc(F)cc2)cc1 (centres unmarked) [Compound 1415] |  |  | EC50 [3]: < 0.008 µM
CC(C)S(=O)(=O)NCC(O)COc1ccc(C2c3[nH]c4ccc(Cl)cc4c3CCN2C(=O)Oc2ccc(Cl)cc2)cc1 (centres unmarked) [Compound 1566] |  |  | EC50 [3]: 0.04 to 0.2 µM
COC(=O)NCC(O)CCOc1ccc([C@H]2c3[nH]c4ccc(Cl)cc4c3CCN2C(=O)Oc2ccc(Cl)cc2)cc1 (some centres unmarked) [Compound 1635] |  |  | EC50 [3]: < 0.008 µM
O=C(Oc1ccc(Cl)cc1)N1CCc2c([nH]c3ccc(Cl)cc23)C1c1ccc(OCCCCCCN2CCCC2)cc1 (centres unmarked) [Compound 783] | < 0.008 |  | 
O=C(Oc1ccc(Cl)cc1)N1CCc2c([nH]c3ccc(Cl)cc23)C1c1ccc(O)cc1 (centres unmarked) [Compound 577] |  | 0.04 to 0.2 | 
CC(C)NCC(O)COc1ccc(C2c3[nH]c4ccc(Cl)cc4c3CCN2C(=O)Oc2ccc(Cl)cc2)cc1 (centres unmarked) [Compound 977] | 0.04 to 0.2 |  | 
O=C(Oc1ccc(F)cc1)N1CCc2c([nH]c3ccc(Cl)cc23)C1c1cccc(OCCCn2ccnn2)c1 (centres unmarked) [Compound 1125] |  | 0.2 to 1 | 
O=C(Oc1ccc(Cl)cc1)N1CCc2c([nH]c3ccc(Cl)cc23)C1c1ccc(OCC(O)CNS(=O)(=O)C2CC2)cc1 (centres unmarked) [Compound 1567] |  |  | EC50 [3]: 0.04 to 0.2 µM
CN(C)CC(=O)Nc1ccc(C2c3[nH]c4ccc(Cl)cc4c3CCN2C(=O)Oc2ccc(Cl)cc2)cc1 (centres unmarked) [Compound 491] | 0.04 to 0.2 |  | 
CS(=O)(=O)c1ccc(C2c3[nH]c4ccc(Cl)cc4c3CCN2C(=O)Oc2ccc(Cl)cc2)cc1 (centres unmarked) [Compound 360] |  | 0.008 to 0.04 | 
CC(=O)NCC(O)CCOc1ccc([C@H]2c3[nH]c4ccc(Cl)cc4c3CCN2C(=O)Oc2ccc(Cl)cc2)cc1 (some centres unmarked) [Compound 1276] |  | < 0.008 | 
O=C(Oc1ccc(Cl)cc1)N1CCc2c([nH]c3ccc(Cl)cc23)C1c1ccc(OCCCCCCNCCCn2ccnc2)cc1 (centres unmarked) [Compound 789] | 0.04 to 0.2 |  | 
NCC(O)COc1ccc(C2c3[nH]c4ccc(Cl)cc4c3CCN2C(=O)Oc2ccc(Cl)cc2)cc1 (centres unmarked) [Compound 846] | 0.04 to 0.2 |  | 
O=C(Oc1ccc(Cl)cc1)N1CCc2c([nH]c3ccc(Cl)cc23)C1c1ccc(OCCCN2CCSCC2)cc1 (centres unmarked) [Compound 933] | < 0.008 |  | 
O=C(Oc1ccc(Cl)cc1)N1CCc2c([nH]c3ccc(Br)cc23)C1c1ccc(OCC[C@H](O)CO)cc1 (some centres unmarked) [Compound 1349] |  |  | EC50 [3]: < 0.008 µM
COc1cc(C2c3[nH]c4ccc(Cl)cc4c3CCN2C(=O)Oc2ccccc2)ccc1OCCCN1CCOCC1 (centres unmarked) [Compound 1130] | 0.008 to 0.04 |  | 
O=C(Oc1ccc(Cl)cc1)N1CCc2c([nH]c3ccc(Cl)cc23)[C@@H]1c1ccc(OCc2cn(C3OC(CO)C(O)C(O)C3O)nn2)cc1 (some centres unmarked) [Compound 1674] |  |  | EC50 [3]: 0.2 to 1 µM
CCOC(=O)NC[C@@H](O)COc1ccc([C@H]2c3[nH]c4ccc(Cl)cc4c3CCN2C(=O)Oc2ccc(F)cc2)cc1 [Compound 1664] |  |  | EC50 [3]: < 0.008 µM
O=C(Oc1ccccc1Cl)N1CCc2c([nH]c3ccc(Cl)cc23)C1c1ccc(Cl)cc1 (centres unmarked) [Compound 589] |  | 0.04 to 0.2 | 
O=C(CN1CCOCC1)Nc1ccc(C2c3[nH]c4ccc(Cl)cc4c3CCN2C(=O)Oc2ccc(Cl)cc2)cc1 (centres unmarked) [Compound 454] | 0.008 to 0.04 |  | 

SMILES | EC50 [1] [µM] | EC50 [2] [µM] | other results
C[Si](C)(C)CCS(=O)(=O)N1CCC(Oc2ccc(C3c4[nH]c5ccc(Cl)cc5c4CCN3C(=O)Oc3ccc(Cl)cc3)cc2)CC1 (centres unmarked) [Compound 1581] |  |  | EC50 [3]: < 0.008 µM
N#Cc1ccc(C2c3[nH]c4ccc(Cl)cc4c3CCN2C(=O)Oc2ccc(Cl)cc2)cc1 (centres unmarked) [Compound 350] |  | < 0.008 | 
O=C(Oc1ccc(F)cc1)N1CCc2c([nH]c3ccc(Cl)cc23)C1c1ccc(OCCCCCCN2CCOCC2)cc1 (centres unmarked) [Compound 776] | < 0.008 |  | 
COC(=O)c1ccc(C2c3[nH]c4ccc(Br)cc4c3CCN2C(=O)Oc2ccccc2Cl)cc1 (centres unmarked) [Compound 593] |  | 0.008 to 0.04 | 
O=C(Oc1ccc(Cl)cc1)N1CCc2c([nH]c3ccc(Cl)cc23)[C@@H]1c1ccc(OC2CCN(CCN3CCOCC3)CC2)cc1 [Compound 1682] | < 0.008 |  | 
CC(C)(C)OC(=O)N1CCC(COc2ccc(C3c4[nH]c5ccc(Cl)cc5c4CCN3C(=O)Oc3ccc(Cl)cc3)cc2)CC1 (centres unmarked) [Compound 845] |  | 0.04 to 0.2 | 
CN1CCCC(COc2ccc(C3c4[nH]c5ccc(Cl)cc5c4CCN3C(=O)Oc3ccc(F)cc3)cc2)C1 (centres unmarked) [Compound 932] | < 0.008 |  | 
COc1ccc(C2c3[nH]c4ccc(Br)cc4c3CCN2C(=O)Oc2ccc(Cl)cc2)cc1 (centres unmarked) [Compound 355] |  | < 0.008 | 
COCCN(CCOC)CC(O)COc1ccc(C2c3[nH]c4ccc(Cl)cc4c3CCN2C(=O)Oc2ccc(F)cc2)cc1 (centres unmarked) [Compound 913] | < 0.008 |  | 
CCSCCCOc1ccc(C2c3[nH]c4ccc(Cl)cc4c3CCN2C(=O)Oc2ccc(Cl)cc2)cc1 (centres unmarked) [Compound 1552] |  |  | EC50 [3]: < 0.008 µM
CC(=O)N1CCN(CC(O)COc2ccc(C3c4[nH]c5ccc(Cl)cc5c4CCN3C(=O)Oc3ccc(F)cc3)cc2)CC1 (centres unmarked) [Compound 637] | < 0.008 |  | 
O=C(Oc1ccc(Cl)cc1)N1CCc2c([nH]c3ccc(Cl)cc23)C1c1ccc(OCCNc2nccs2)cc1 (centres unmarked) [#841] |  | < 0.008 | 
O=C(Oc1ccc(F)cc1)N1CCc2c([nH]c3ccc(Cl)cc23)C1c1ccc(OCCCCN2CCCC2)cc1 (centres unmarked) [Compound 736] | < 0.008 |  | 
CCOC(COc1ccc(C2c3[nH]c4ccc(Cl)cc4c3CCN2C(=O)Oc2ccc(Cl)cc2)cc1)OCC (centres unmarked) [Compound 1228] |  | < 0.008 | 
Cc1nccnc1Oc1ccc([C@H]2c3[nH]c4ccc(Cl)cc4c3CCN2C(=O)Oc2ccc(Cl)cc2)cc1 [Compound 1659] |  |  | EC50 [3]: < 0.008 µM
O=C(Nc1ccc(C2c3[nH]c4ccc(Cl)cc4c3CCN2C(=O)Oc2ccc(Cl)cc2)cc1)c1ccco1 (centres unmarked) [Compound 437] |  | < 0.008 | 
O=C(Oc1ccc(Cl)cc1)N1CCc2c([nH]c3ccc(Cl)cc23)C1c1ccc(OCCn2ccnn2)cc1 (centres unmarked) [Compound 839] |  | 0.008 to 0.04 | 
C#CCCOc1ccc([C@H]2c3[nH]c4ccc(Cl)cc4c3CCN2C(=O)Oc2ccc(Cl)cc2)cc1 [Compound 1614] |  |  | EC50 [3]: < 0.008 µM
CCOC(=O)NCC(O)CCOc1ccc([C@H]2c3[nH]c4ccc(Cl)cc4c3CCN2C(=O)Oc2ccc(C)cc2)cc1 (some centres unmarked) [Compound 1643] |  |  | EC50 [3]: < 0.008 µM
COCCN(C)CC(O)COc1ccc(C2c3[nH]c4ccc(Cl)cc4c3CCN2C(=O)Oc2ccc(Cl)cc2)cc1 (centres unmarked) [Compound 964] | 0.008 to 0.04 |  | 
O=C(COc1ccc(C2c3[nH]c4ccc(Cl)cc4c3CCN2C(=O)Oc2ccc(F)cc2)cc1)NCCN1CCOCC1 (centres unmarked) [Compound 1022] | 0.04 to 0.2 |  | 
COc1ccc(C2c3[nH]c4ccc(Cl)cc4c3CCN2C(=O)Oc2ccc(C)cc2)c(F)c1 (centres unmarked) [Compound 1266] |  | < 0.008 | 

SMILES | EC50 [1] [µM] | EC50 [2] [µM] | other results
O=C(NCC(O)COc1ccc(C2c3[nH]c4ccc(Cl)cc4c3CCN2C(=O)Oc2ccc(Cl)cc2)cc1)c1cccnc1 (centres unmarked) [Compound 1561] |  |  | EC50 [3]: 0.008 to 0.04 µM
COc1ccc(OC(=O)N2CCc3c([nH]c4ccc(Cl)cc34)C2c2ccc(OCC[C@H](O)CO)cc2)cc1 (some centres unmarked) [Compound 1181] |  | < 0.008 | 
Cc1ccc(C2c3[nH]c4ccc(Br)cc4c3CCN2C(=O)Oc2ccc(Cl)cc2)cc1 (centres unmarked) [Compound 353] |  | < 0.008 | 
COc1ccc(OC(=O)N2CCc3c([nH]c4ccc(Cl)cc34)C2c2ccc(OCCCn3ccnn3)cc2)cc1 (centres unmarked) [Compound 1031] |  | < 0.008 | 
COc1ccc(C2c3[nH]c4ccc(Cl)cc4c3CCN2C(=O)Oc2ccc(Cl)cc2)cc1OCCN1CCOCC1 (centres unmarked) [Compound 1095] | 0.2 to 1 |  | 
O=C(NCC(O)COc1ccc(C2c3[nH]c4ccc(Cl)cc4c3CCN2C(=O)Oc2ccc(Cl)cc2)cc1)C1CC1 (centres unmarked) [Compound 1560] |  |  | EC50 [3]: 0.008 to 0.04 µM
O=C(Oc1ccc(F)cc1)N1CCc2c([nH]c3ccc(Cl)cc23)C1c1ccc(OCCCCCl)cc1 (centres unmarked) [Compound 719] |  | < 0.008 | 
CN1CCN(CCCOc2ccc(C3c4[nH]c5ccc(Cl)cc5c4CCN3C(=O)Oc3ccccc3)cc2)CC1 (centres unmarked) [Compound 1076] | 0.04 to 0.2 |  | 
O=C(Oc1ccc(F)cc1)N1CCc2c([nH]c3ccc(Cl)cc23)C1c1ccc(OC2CCOCC2)cc1 (centres unmarked) [Compound 1577] |  |  | EC50 [3]: < 0.008 µM
COc1ccc(OC(=O)N2CCc3c([nH]c4ccc(Cl)cc34)C2c2ccc(OCC(=O)N3CCOCC3)cc2)cc1 (centres unmarked) [Compound 1027] |  | 0.04 to 0.2 | 
CC1(C)OC[C@H](CCOc2ccc(C3c4[nH]c5ccc(Cl)cc5c4CCN3C(=O)Oc3ccccc3)cc2)O1 (some centres unmarked) [Compound 1168] |  | < 0.008 | 
O=C(Oc1ccc(Cl)cc1)N1CCc2c([nH]c3ccc(Br)cc23)C1c1ccc(OCC(O)CO)cc1 (centres unmarked) [Compound 1344] |  |  | EC50 [3]: < 0.008 µM
O=C(Oc1ccccc1Cl)N1CCc2c([nH]c3ccc(Cl)cc23)C1c1ccc(OCCCCl)cc1 (centres unmarked) [Compound 713] |  | 0.008 to 0.04 | 
O=C(Oc1ccc(Cl)cc1)N1CCc2c([nH]c3ccc(Cl)cc23)C1c1ccc(OCC2OCCO2)cc1 (centres unmarked) [Compound 1053] |  | < 0.008 | 
Cc1cc(NCCOc2ccc(C3c4[nH]c5ccc(Cl)cc5c4CCN3C(=O)Oc3ccc(Cl)cc3)cc2)on1 (centres unmarked) [Compound 1419] |  |  | EC50 [3]: 0.008 to 0.04 µM
O=C(Oc1ccc(F)cc1)N1CCc2c([nH]c3ccc(Cl)cc23)C1c1ccc(OCC(O)CN2CCSCC2)cc1 (centres unmarked) [Compound 925] | < 0.008 |  | 
COCCOCCOc1ccc(C2c3[nH]c4ccc(Cl)cc4c3CCN2C(=O)Oc2ccccc2)cc1 (centres unmarked) [Compound 670] |  | < 0.008 | 
COc1ccc(OC(=O)N2CCc3c([nH]c4ccc(Cl)cc34)C2c2ccc(OCCCCl)cc2)cc1 (centres unmarked) [Compound 944] |  | 0.008 to 0.04 | 
COc1ccc(OC(=O)N2CCc3c([nH]c4ccc(Cl)cc34)C2c2ccc(OCCCn3cncn3)c(OC)c2)cc1 (centres unmarked) [Compound 1151] |  | 0.04 to 0.2 | 
O=C(Oc1ccc(Cl)cc1)N1CCc2c([nH]c3ccc(Cl)cc23)C1c1ccc(OCCCCn2ccnc2)cc1 (centres unmarked) [Compound 1001] |  |  | EC50 (HeLa cells, hypoxic conditions (1% O2), 24-48 hours, VEGF in conditioned media, read-out: ELISA EC50): 0.008 to 0.04 µM
COC(=O)c1ccc(C2c3[nH]c4ccc(Cl)cc4c3CCN2C(=O)Oc2ccccc2Cl)cc1 (centres unmarked) [Compound 590] |  | 0.008 to 0.04 | 

— patent US20120157401A1, “METHODS FOR TREATING NEUROFIBROMATOSIS” (PTC Therapeutics, Inc., priority 2009, published 2012)
